These results are taken from patent US20250382565A1, “INTELLIGENT SUPERVISION SYSTEM AND METHOD FOR BACTERIAL CULTURE EQUIPMENT BASED ON BIG DATA” (Suzhou Foo-Chi Biomedical Technology Co., Ltd., priority 2024, published 2025).

The test system of this experiment is Staphylococcus aureus ATCC 29213. Description: MIC of the antibiotic against the strain to be tested by E-test. The note with it: ATCC29213, cefuroxime E-test strip, overnight culturing, CLSI standard operation. The experiment is classed as cell-based. The procedure:
Test of the MIC of the antibiotic against the strain to be tested: The strain ATCC 29213 for test is incubated onto a culture medium plate, and a bacterial colony grows after 18 to 24 h for future use. Normal saline (a phosphate buffer solution, or the like) is prepared and is then separately put into turbidimeter tubes, each of which has a capacity of 9 mL, and sterilization treatment is carried out (at 121° C. for 15 to 30 min). A particular number of bacteria are added into the turbidimeter tubes to make bacterial suspensions, and the MacFarland turbidity is adjusted to 0.5 to 1 McFarland. According to a CLSI standard operation and use guidelines of E-test, a swab is dipped into each bacterial suspension, and is applied to a culture medium. After the swab is dried for 15 to 20 min, a cefuroxime E-test strip is applied to a surface of a bacterial moss for overnight culturing. A scale at an intersection of an edge of an inhibition zone and the strip is read. The scale is an MIC value of ATCC 29213 against the cefuroxime, which is 2 ug/mL.

The term MIC denotes the smallest concentration in the dilution series that meets the test's criterion for growth inhibition. Consider `CO/N=C(\C(=O)N[C@@H]1C(=O)N2C(C(=O)O)=C(COC(N)=O)CS[C@H]12)c1ccco1` [cefuroxime], for which the MIC worked out at 2 µg/mL.
